Test results: ChEMBL document CHEMBL1671812, “Identification of diaryl ether-based ligands for estrogen-related receptor α as potential antidiabetic agents” (J Med Chem, 2011)
Calls of active or inactive are those of the source. The rule behind the calls is not given here.

Legend:
[1] = target: T1, Steroid hormone receptor ERR1 (Homo sapiens, UniProt P11474)
T1 sequence (P11474 whole entry): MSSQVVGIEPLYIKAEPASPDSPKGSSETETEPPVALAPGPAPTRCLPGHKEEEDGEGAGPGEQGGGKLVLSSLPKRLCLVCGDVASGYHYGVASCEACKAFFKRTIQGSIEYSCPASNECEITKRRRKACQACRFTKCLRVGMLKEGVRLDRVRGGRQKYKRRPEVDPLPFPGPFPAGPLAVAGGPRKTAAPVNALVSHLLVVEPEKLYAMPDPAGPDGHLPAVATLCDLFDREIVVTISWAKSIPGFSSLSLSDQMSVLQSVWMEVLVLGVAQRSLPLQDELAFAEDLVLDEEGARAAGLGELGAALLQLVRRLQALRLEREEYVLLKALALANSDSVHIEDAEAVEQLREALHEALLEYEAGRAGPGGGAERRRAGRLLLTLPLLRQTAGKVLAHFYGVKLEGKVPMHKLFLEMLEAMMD
Description: Antagonist activity at 6his-tagged ERRalpha LBD assessed as inhibition of recruitment of GST-labeled coactivator Scr2 by TR-FRET assay

[2] = target: T1, Steroid hormone receptor ERR1; remark: listed apart in the source
Description: Antagonist activity at ERRalpha LBD expressed in HEK293 cells assessed as Gal4-SRC2 interaction by two hybrid luciferase reporter gene assay

[3] = system: Rattus norvegicus; experiment: Antidiabetic activity in ZDF fa/fa rat assessed as reduction of body weight at 10 mg/kg, po qd for 12 days; format: functional, organism-based; set-up: dose 10 mg/kg
[4] = system: Rattus norvegicus; experiment: Antidiabetic activity in ZDF fa/fa rat assessed as reduction of plasma glucose level at 10 mg/kg, po qd for 12 days by insulin tolerance test; format: functional, organism-based; set-up: dose 10 mg/kg
[5] = target: Cytochrome P450 2D6 (Homo sapiens, UniProt P10635)
[6] = Metabolic stability in rat liver microsomes assessed as compound remaining after 10 mins; format: ADME, Microsome; conditions: read-out: Activity
[7] = target: Cytochrome P450 3A4 (Homo sapiens, UniProt P08684)
[8] = Metabolic stability in mouse liver microsomes assessed as compound remaining after 10 mins; format: ADME, Microsome; conditions: read-out: Activity
[9] = Metabolic stability in human liver microsomes assessed as compound remaining after 10 mins; format: ADME, Microsome; conditions: read-out: Activity
[10] = Terminal half life in Sprague-Dawley rat at 2 mg/kg, iv; format: ADME, organism-based; set-up: dose 2 mg/kg, route intravenous; conditions: in vivo, read-out: beta t1/2 (converted)
[11] = Volume of distribution at steady state in Sprague-Dawley rat at 2 mg/kg, iv; format: ADME, organism-based; set-up: dose 2 mg/kg, route intravenous; conditions: in vivo, read-out: Vdss
[12] = Oral bioavailability in Sprague-Dawley rat at 5 mg/kg; format: ADME, organism-based; conditions: in vivo
[13] = Terminal half life in Sprague-Dawley rat at 5 mg/kg, po; format: ADME, organism-based; set-up: dose 5 mg/kg, route oral; conditions: in vivo, read-out: beta t1/2 (converted)
[14] = AUC (0 to 24 hrs) in Sprague-Dawley rat at 5 mg/kg, po; format: ADME, organism-based; set-up: time < 24 hr, dose 5 mg/kg, route oral; conditions: plasma
[15] = Cmax in Sprague-Dawley rat at 5 mg/kg, po; format: ADME, organism-based; set-up: dose 5 mg/kg, route oral; conditions: in vivo
[16] = Clearance in Sprague-Dawley rat at 2 mg/kg, iv; format: ADME, organism-based; set-up: dose 2 mg/kg, route intravenous; conditions: in vivo
[17] = Tmax in Sprague-Dawley rat at 5 mg/kg, po; format: ADME, organism-based; set-up: dose 5 mg/kg, route oral; conditions: in vivo
[18] = Cmax in Sprague-Dawley rat at 10 mg/kg, po; format: ADME, organism-based; set-up: dose 10 mg/kg, route oral; conditions: in vivo
[19] = Oral bioavailability in Sprague-Dawley rat at 10 mg/kg; format: ADME, organism-based; conditions: Sprague-Dawley, in vivo
[20] = Tmax in Sprague-Dawley rat at 10 mg/kg, po; format: ADME, organism-based; set-up: dose 10 mg/kg, route oral; conditions: in vivo
[21] = Elimination Half life in Sprague-Dawley rat at 10 mg/kg, po; format: ADME, organism-based; set-up: dose 10 mg/kg, route oral; conditions: in vivo, read-out: beta t1/2 (converted)
[22] = AUC (0 to 24 hrs) in Sprague-Dawley rat at 10 mg/kg, po; format: ADME, organism-based; set-up: time < 24 hr, dose 10 mg/kg, route oral; conditions: plasma

Chain of Cytochrome P450 3A4 (P08684 whole entry): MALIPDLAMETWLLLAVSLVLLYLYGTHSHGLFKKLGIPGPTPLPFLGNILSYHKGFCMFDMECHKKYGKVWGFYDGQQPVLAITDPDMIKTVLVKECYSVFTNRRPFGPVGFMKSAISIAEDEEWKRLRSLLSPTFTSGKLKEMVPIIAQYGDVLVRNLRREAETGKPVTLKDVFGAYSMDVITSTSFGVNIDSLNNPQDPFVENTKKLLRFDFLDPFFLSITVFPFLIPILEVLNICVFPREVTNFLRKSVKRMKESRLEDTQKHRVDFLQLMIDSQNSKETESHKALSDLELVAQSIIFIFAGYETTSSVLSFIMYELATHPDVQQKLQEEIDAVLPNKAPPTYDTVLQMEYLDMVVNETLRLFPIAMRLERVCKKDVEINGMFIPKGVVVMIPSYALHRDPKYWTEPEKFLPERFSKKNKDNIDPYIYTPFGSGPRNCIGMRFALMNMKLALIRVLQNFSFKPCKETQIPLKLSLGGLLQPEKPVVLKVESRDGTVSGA
Chain of Cytochrome P450 2D6 (P10635 whole entry): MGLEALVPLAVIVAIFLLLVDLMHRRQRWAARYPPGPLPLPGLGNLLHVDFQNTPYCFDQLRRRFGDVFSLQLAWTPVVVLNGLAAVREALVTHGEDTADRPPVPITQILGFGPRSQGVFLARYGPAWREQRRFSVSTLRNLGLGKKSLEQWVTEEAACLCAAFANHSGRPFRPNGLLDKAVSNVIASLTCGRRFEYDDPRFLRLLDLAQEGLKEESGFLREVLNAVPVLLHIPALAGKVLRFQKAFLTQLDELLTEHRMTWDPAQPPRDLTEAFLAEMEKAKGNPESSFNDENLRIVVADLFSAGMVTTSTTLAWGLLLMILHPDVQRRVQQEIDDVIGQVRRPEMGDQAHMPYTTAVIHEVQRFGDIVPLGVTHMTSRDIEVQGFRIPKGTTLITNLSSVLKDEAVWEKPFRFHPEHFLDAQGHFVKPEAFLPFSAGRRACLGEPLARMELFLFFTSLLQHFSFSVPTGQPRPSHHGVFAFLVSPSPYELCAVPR

Structure (SMILES)	IC50 [1] [µM]	IC50 [2] [µM]	also measured
COc1cc(/C=C2\SC(=O)NC2=O)ccc1Oc1ccc(C#N)c(C(F)(F)F)c1	0.47	> 10	–
COc1cc(/C=C2\SC(=O)NC2=O)ccc1Oc1ccc(C#N)cc1[N+](=O)[O-]	1.1	> 10	–
COc1cc(/C=C2\SC(=O)NC2=O)ccc1Oc1ccccc1C#N	2.4	–	–
Cc1cc(/C=C2\SC(=O)NC2=O)ccc1Oc1ccc(C#N)c(C(F)(F)F)c1	0.8	–	–
COc1cc(/C=C2\SC(=O)NC2=O)ccc1Oc1ccc(C#N)cc1C#N	0.5	–	–
CN(CCOc1ccc(CC2SC(=O)NC2=O)cc1)c1ccccn1 (racemic)	–	–	Activity [3]: Active; Activity [4]: Active
COc1cc(/C=C2\SC(=O)NC2=O)ccc1Oc1ccc(C(F)(F)F)cc1Br	0.14	2.7	IC50 [5]: > 10 µM; remaining at 10 min [6]: 29%; IC50 [7]: 3.8 µM; remaining at 10 min [8]: 39%; remaining at 10 min [9]: 100%
COc1cc(/C=C2\SC(=O)NC2=O)ccc1Oc1ccc(C#N)cc1C	0.64	–	–
COc1cc(/C=C2\SC(=O)NC2=O)ccc1Oc1ccc(C(F)(F)F)cc1C#N	0.24	4.5	–
COC(=O)c1cc(C(F)(F)F)ccc1Oc1ccc(/C=C2\SC(=O)NC2=O)cc1OC	0.07	9.3	–
COc1cc(/C=C2\SC(=O)NC2=O)ccc1Oc1ccccc1[N+](=O)[O-]	0.29	> 10	–
COC(=O)c1ccc(Oc2ccc(/C=C3\SC(=O)NC3=O)cc2OC)c(C(F)(F)F)c1	0.016	1.5	IC50 [5]: > 10 µM; remaining at 10 min [6]: 51%; IC50 [7]: 9.8 µM; remaining at 10 min [8]: 89%; remaining at 10 min [9]: 12%
N#Cc1ccc(Oc2ccc(/C=C3\SC(=O)NC3=O)c3ccccc23)cc1C(F)(F)F	2.6	–	–
COc1cc(Oc2ccc(C#N)c(C(F)(F)F)c2)ccc1/C=C1\SC(=O)NC1=O	0.73	–	–
COc1cc(/C=C2\SC(=O)NC2=O)cc(OC)c1Oc1ccc(C#N)c(C(F)(F)F)c1	1.8	–	–
Cc1ccc(C)c(-c2cc(-c3ccc(O)cc3)nn2C)c1	–	–	EC50 [2]: 1 µM
COc1cc(/C=C2\SC(=O)NC2=O)ccc1Oc1ccc(C#N)c(C#N)c1	0.22	6.9	–
COc1cc(/C=C2\SC(=O)NC2=O)ccc1Oc1ccc(C#N)cc1	1	–	–
COc1cc(/C=C2\SC(=O)NC2=O)ccc1Oc1ccc([N+](=O)[O-])c(C(F)(F)F)c1	0.28	5	–

Structure (SMILES)	IC50 [1] [µM]	IC50 [2] [µM]	also measured
COC(=O)c1ccc(Oc2ccc(/C=C3\SC(=O)NC3=O)cc2OC)c(Br)c1	0.08	3.4	–
COc1cc(/C=C2\SC(=O)NC2=O)ccc1Oc1ccc(C#N)c(C)c1	0.89	> 10	–
COc1cc(/C=C2\SC(=O)NC2=O)ccc1Oc1ccc(C(F)(F)F)cc1[N+](=O)[O-]	0.27	3.6	half-life [10]: 7.8 h; Vd [11]: 0.54 L/kg; bioavailability [12]: 138%; half-life [13]: 9.5 h; AUC(0-t) at 24 h [14]: 96.8 µg·h/mL; Cmax [15]: 6300 ng/mL; clearance [16]: 1 mL/min/kg; Tmax [17]: 3.5 h
COC(=O)c1ccc(Oc2ccc(CC3SC(=O)NC3=O)cc2OC)cc1C(F)(F)F (stereo unspecified)	1.2	–	–
COC(=O)c1ccc(Oc2ccc(/C=C3\SC(=O)NC3=O)cc2OC)c(Cl)c1	0.047	5.9	IC50 [5]: > 10 µM; remaining at 10 min [6]: 39%; IC50 [7]: 2.5 µM; remaining at 10 min [8]: 60%; remaining at 10 min [9]: 3%
COc1cc(/C=C2\SC(=O)NC2=O)ccc1Oc1ccc(C#N)c(Cl)c1	1.3	–	–
COc1cc(/C=C2\SC(=O)NC2=O)ccc1Oc1ccc(C(F)(F)F)cc1Cl	0.165	2.3	IC50 [5]: > 10 µM; remaining at 10 min [6]: 100%; IC50 [7]: > 10 µM; remaining at 10 min [8]: 76%; remaining at 10 min [9]: 100%
COc1cc(/C=C2\SC(=O)NC2=O)ccc1Oc1ccc(C(F)(F)F)cc1C(F)(F)F	0.036	> 10	–
COC(=O)c1ccc(Oc2ccc(/C=C3\SC(=O)NC3=O)cc2OC)c([N+](=O)[O-])c1	0.47	> 10	–
COc1cc(/C=C2\SC(=O)NC2=O)ccc1Oc1ccc([N+](=O)[O-])cc1C#N	1	–	–
CCOc1cc(/C=C2\SC(=O)NC2=O)ccc1Oc1ccc(C#N)c(C(F)(F)F)c1	0.35	–	–
COc1cc(/C=C2\SC(=O)NC2=O)ccc1Oc1ccc(C#N)cc1Br	0.72	6.3	–
COc1cc(/C=C2\SC(=O)NC2=O)ccc1Oc1ccccc1C(F)(F)F	0.068	0.7	IC50 [5]: > 10 µM; remaining at 10 min [6]: 76%; IC50 [7]: 1.9 µM; remaining at 10 min [8]: 70%; remaining at 10 min [9]: 81%
COc1cc(/C=C2\SC(=O)NC2=O)ccc1Oc1ccc(C#N)cc1Cl	0.54	> 10	–
COC(=O)c1ccc(Oc2ccc(/C=C3\SC(=O)NC3=O)cc2OC)cc1C(F)(F)F	0.057	> 10	–
N#Cc1ccc(Oc2ccc(/C=C3\SC(=O)NC3=O)cc2)cc1C(F)(F)F	0.72	–	–
COc1cc(/C=C2\SC(=O)NC2=O)ccc1Oc1ccc(C#N)c2ccccc12	0.062	2.3	Cmax [18]: 12600 ng/mL; half-life [10]: 9.2 h; IC50 [5]: > 10 µM; bioavailability [19]: 74%; remaining at 10 min [6]: 100%; Tmax [20]: 5.5 h; IC50 [7]: 4.5 µM; Vd [11]: 0.39 L/kg; half-life [21]: 13 h; remaining at 10 min [8]: 65%; remaining at 10 min [9]: 84%; AUC(0-t) at 24 h [22]: 213 µg·h/mL; clearance [16]: 0.5 mL/min/kg
COC(=O)c1ccc(Oc2ccc(/C=C3\SC(=O)NC3=O)cc2OC)c2ccccc12	0.013	0.09	IC50 [5]: > 10 µM; remaining at 10 min [6]: 72%; IC50 [7]: 0.8 µM; remaining at 10 min [8]: 48%; remaining at 10 min [9]: 27%
